From patent US20230027620A1, “PENTAPEPTIDE AND METHODS OF USE THEREOF” (THE BOARD OF TRUSTEES OF THE UNIVERSITY OF ILLINOIS, priority 2019, published 2023) come the findings set out here.

“Also recorded” adds a separate entry of the source. Starred links: 1 amine or outer side, 2 acyl side, 3 side chain; linkers in the order of their positions; H or OH if unused. Non-standard residues stand in square brackets, D forms with d. No end group written: not given here. (CH2)6 = -(CH2)6- hydrocarbon linking residues between repeats, C(CCC[*:2])CC[*:1]

The first experiment deals with epithelial cell migration. Kind of experiment: In vitro scratch assay, truncation and scrambled peptide series (FIG. 1; cell line not given). The format is cell-based. The following applies: 80 μM; FIG. 1; vs untreated control. The protocol: Peptides were tested for efficacy in accelerating scratch closure rates. Negative controls included untreated and multiple scrambled peptide (SP) controls. All peptides were tested at 80 μM concentration. All experiments were performed in triplicate with three technical replicates for each experiment. Statistical significance was determined by one-way ANOYA with Dunnett's post-hoc test. *p<0.05; **p<0.01; ***p<0.001. Relative closure=(% closure of treated sample)/(% closure of Untreated control).
In Vitro Scratch Assay. HCE, HCLE, HELA and MCF-7 cells were cultured in a 24-well plate at 2.5×10^5 (cells/well) seeding density, and were grown to confluence on a 24-well plate. Subsequently, a straight-line scratch mark was made with a sterile P200 pipette tip. The cells were then washed twice with phosphate-buffered saline (PBS) to remove cellular debris. Wounded areas were then treated with the peptides provided in Table 5 at various concentrations in standard medium with reduced serum conditions (0.5% FBS in MEM medium (HCE), growth factor-free K-SFM media (HCLE), 1% FBS in DMEM medium (HeLa) and 0.5% FBS in RPMI 1640 medium (MCF-7)). Scratches were photographed microscopically at 4× magnification (Image Express Micro, Molecular Devices, San Jose, Calif.) every hour over the course of the experiment. The wound area at each time-point was measured using Image J software (Image J 1.47v, NIH, Thornwood, Bethesda, Md.). Relative wound closure was calculated by dividing the closure of the treated wound by that of the untreated wound. For all the experiments including truncated histatin-5, a final concentration of 80 μM was used. PD98059 (Calbiochem, San Diego, Calif.) at final concentration of 50 μM was used as a specific inhibitor of MEK. PD98059 was added to cell cultures at the same time as histatin peptides.
To identify the residues of Hst5 required for epithelial cell migration, serial truncation experiments were performed, progressively deleting residues in Hst5. […] All peptides were tested at 80 μM. […] Thus, the SHRGY (SEQ ID NO:2) sequence is necessary and sufficient to promote epithelial migration rates in in vitro scratch assays.
On to DSHAKRHHGYKRKF [Hst5(1-14)], for which the “scratch (wound) closure rates, relative closure” value (“scratch … relative closure” below) is recorded as “no significant increase in wound closure rates”.

Take DSHAKRHHGYKRKFHEKHH [Hst5(1-19)]: the “scratch … relative closure” value is listed as “no significant increase in wound closure rates”.

With DSHAKRHHGYKRKFHEKHHSHR [Hst5(1-22)], the “scratch … relative closure” value was “no significant increase in wound closure rates”. Same read-out and setting: with DSHAKRHHGYKRKFHEKHHSHRG [Hst5(1-23)] the entry was “no significant increase in wound closure rates”. On the same count and under the same terms, under “DSHAKRHIHGYKRKFHEKHHSH (DSHAKRHHGYKRKFHEKHHSH) [Hst5(1-21)]” stands “no significant increase in wound closure rates”; under HSHKEGHHYKRFKRKHHADSHRGY [SP2], “significant increases in scratch closure rates”. The same measure, in the same setting: with RHHGYKRKFHEKHHSHRGY [Hst5(5-24)] the entry was “significant increases in scratch closure rates”; with RYHGS [SP4], “did not significantly increase wound closure rates”; with RYSGH [SP3], “did not significantly increase wound closure rates”. Turning to “SHRGY-(CH2)6-SHRGY-(CH2)6-SHRGY-(CH2)6-SHRGY (SHRGY[(CH2)6]SHRGY[(CH2)6]SHRGY[(CH2)6]SHRGY) [multimer of SHRGY composed of 4 repeating units]”, the “scratch … relative closure” value is “significant increases in scratch closure rates”. On the same count and under the same terms, under TNQQK [SP5] stands “no significant improvement in the wound closure rates”; under “c-SHRGY: cyclized SHRGY peptide, prepared using a linker/spacer composed of 6-(Fmoc-amino)caproic acid, 6-(Fmoc-amino)hexanoic acid (cyclo(SHRGY); not fully specified (C-terminus))”, “significant increases in scratch closure rates”.

The experiment is the same for the next values; noted with them: PD98059 50 μM added at the same time as Hst5.
On to `COc1cccc(-c2cc(=O)c3ccccc3o2)c1N` [PD98059], for which the “effect of MEK inhibitor co-treatment on Hst5-promoted wound closure” value was “eliminated the effects of Hst5 on promoting wound closure”.

Staying with this experiment, now noted: summary statement: immortalized human corneal epithelial cells, immortalized human corneal limbal epithelial cells, HeLa human cells, mouse corneal wounding models.
On to SHDGY [pentapeptide], for which the epithelial migration result is reported as “significantly enhance epithelial migration”.

Another experiment relates to p-ERK1/2. Kind of experiment: Immunofluorescence imaging of p-ERK1/2 in scratched HCE monolayer. In kind it is cell-based, Human. The settings on record: 80 μM, 45 minutes. The protocol:
Immunofluorescence Imaging. HCE cells were seeded in 8-well chamber slide at 9×10^4 (cells/well) seeding density, and allowed to incubate to form a confluent monolayer. Subsequently, a straight-line scratch mark was made with a sterile P10 pipette tip. The cells were then washed with media to remove cellular debris. Wounded areas were subsequently left untreated or treated with Hst5, SP1 or SP2 at 80 μM concentrations in MEM media with 0.5% FBS for 45 minutes. Cells were then fixed with 4% paraformaldehyde for 30 minutes and permeabilized with 0.1% Triton X-100 for 5 minutes. After washing with PBS, cells were incubated at room temperature for 30 minutes with 5% bovine serum albumin (BSA) and 5% normal goat serum in PBS. Cells were subsequently incubated with primary antibodies diluted in 1% BSA against p-ERK1/2 (1:200) (Cell Signaling, Danver, Mass.) at 4° C. for 16 hours. After three washings with PBS, cells were incubated with fluorescein isothiocyanate-conjugated sheep anti-rabbit IgG antibody (BD Biosciences, San Jose, Calif.) (1:500) diluted in 1% BSA at room temperature for 60 minutes. After extensive washing with PBS, the cells were then stained with 4′,6-diamidino-2-phenylindole (DAPI; (Roche, Mannheim, GE) for 2 minutes for nuclear staining. The cells were mounted in Fluoro gel with Tris buffer (Electron Microscopy Sciences, Hattfield, Pa.) and observed under a confocal microscope (Zeiss LSM 710 Confocal Microscope, Oberkochen, Germany) using a 10× objective.
The level of activation/phosphorylation of ERK with and without wounding and with and without Hst5 application were investigated to determine whether the cellular signaling pathways underpinning the pro-migratory effects of Hst5 were similar to those of Hst1 in other epithelial cell types. Wounding causes an increased in phosphorylated form of ERK1/2 (p-ERK1/2). Immunolocalization was used to determine whether Hst5 application to a scratched sheet of epithelium would affect pERK1/2 levels.
As to HSHKEGHHYKRFKRKHHADSHRGY [SP2], the “pERK1/2 immunolocalization / signal intensity” value was “increased pERK1/2 levels to a comparable intensity to Hst5; also recorded: elevated immunolocalization of pERK1/2”. The same measure, in the same setting: with YHGHRHFRKHKKHKEAHSYDRGSH [SP1] the entry was “did not elicit the same increase in pERK1/2 immunolocalization”.

For another experiment, the system named is corneal epithelial wound in C57BLl6J mice. Kind of experiment: Murine corneal epithelial injury (wound healing) model. In kind it is in vivo. The following applies: applied topically to mice injured using a standardized wounding method; summary statement. As for the experimental part:
Wounded areas were treated with Hst5, SHRGY (SEQ ID NO:2) or SP1 peptides (n=7 for each group), each tested at 80 μM concentration. Wound areas at multiple time points were measured using Image J software. […] Statistical significance was determined by a two-way ANOVA with Bonferroni post-hoc test. **P<0.01, ***P<0.001. % Wound area=(Wound area at time X/Wound area at time 0)×100.
Wound Healing Assay. Corneal wounding experiments in mice were conducted in compliance with the Association for Research in Vision and Ophthalmology (ARVO) Statement for the Use of Animals in Ophthalmic and Vision Research. The protocol was approved by the Animal Care & Use Committee of the University of Illinois at Chicago. Twelve-to-nineteen week old C57BLl6J (Jackson Laboratory, Bar Harbor, Me.) mice were anesthetized with intraperitoneal injection of ketamine (100 mg/kg) and xylazine (5 mg/kg). After applying two drops of topical 0.5% proparacaine, a 2.0-mm area of the central epithelium was demarcated using 2-mm disposable biopsy punch and removed by an AlgerBrush II (The Alger Company, Lago Vista, Tex.). In the treatment (n=7) or the control (n=7) group, Histatin=5 (80 μM), SHRGY peptide (SEQ ID NO:2; 80 μM), or SP1 (80 μM) was applied to the cornea three times a day. At 0, 18 and 24 hours, the corneas were stained with fluorescein (FUL-GLO® Fluorescein Sodium ophthalmic strips, Akorn, Lake forest, Ill.) and photographed using a NIKON FS-2 photo-slit lamp with a NIKON D200 camera (Melville, N.Y.). Wound sizes were compared with the baseline for each mouse and the percentages of wound closure was measured using Image J software.
For immunofluorescence, excised whole mouse eye was snap frozen in optimal cutting temperature compound (OCT; (Fisher Healthcare, Galderma, Calif.). The frozen tissues were cut into 10 μm cryosections (ThermoScientific NX50 Cryomicrotome, Waltham, Mass.) and subsequently were mounted on Superfrost plus slides (Thermofisher, Waltham, Mass.). Slides were fixed for 20 minutes in methanol, washed several times with PBS, stained with DAPI for 2 minutes, and further washed with PBS and deionized water. The slides were then mounted in Fluoro gel with Tris buffer (Electron Microscopy Sciences, Hattfield, Pa.) and observed under a confocal microscope (Zeiss LSM 710 Confocal Microscope, Oberkochen, Germany) using a 10× objective.
Thus, Hst5 and SHRGY (SEQ ID NO:2)-containing peptides can enhance wound healing in a well-vetted model of murine corneal epithelial injury.
As for “SHRGY-(CH2)6-SHRGY-(CH2)6-SHRGY-(CH2)6-SHRGY (SHRGY[(CH2)6]SHRGY[(CH2)6]SHRGY[(CH2)6]SHRGY) [multimer of SHRGY composed of 4 repeating units]”, the corneal healing result is reported as “significantly improve corneal healing”.
